Test results taken from ChEMBL document CHEMBL2390816, “Structure-based optimization of oxadiazole-based GSK-3 inhibitors” (Eur J Med Chem, 2013).

Experiments:
[1] = biological target: Protein kinase C alpha type (Homo sapiens, UniProt P17252); test: Inhibition of human recombinant PKCalpha by FRET assay
Aurora kinase A = biological target: T1, Aurora kinase A (Homo sapiens, UniProt O14965); test: Inhibition of human recombinant AURKA by FRET assay
T1 sequence (O14965 whole entry): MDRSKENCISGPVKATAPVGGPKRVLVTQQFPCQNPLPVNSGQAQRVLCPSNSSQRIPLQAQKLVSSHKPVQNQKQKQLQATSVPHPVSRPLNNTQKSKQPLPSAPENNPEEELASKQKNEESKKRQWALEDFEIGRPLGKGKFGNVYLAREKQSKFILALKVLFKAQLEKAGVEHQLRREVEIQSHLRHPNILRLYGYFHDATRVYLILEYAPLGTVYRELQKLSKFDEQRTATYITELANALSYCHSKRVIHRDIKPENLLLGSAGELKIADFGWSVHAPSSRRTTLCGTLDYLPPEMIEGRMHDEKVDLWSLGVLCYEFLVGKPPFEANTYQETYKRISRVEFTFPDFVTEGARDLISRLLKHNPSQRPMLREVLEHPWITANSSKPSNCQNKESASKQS

[2] = biological target: Casein kinase I isoform epsilon (Homo sapiens, UniProt P49674); test: Inhibition of human recombinant CK1epsilon by FRET assay
[3] = biological target: Cyclin-dependent kinase 5 (Homo sapiens, UniProt Q00535); test: Inhibition of human recombinant Cdk5/p35 by FRET assay
[4] = biological target: Glycogen synthase kinase-3 beta (Homo sapiens, UniProt P49841); test: Inhibition of human recombinant GSK3beta by FRET assay
[5] = biological target: Glycogen synthase kinase-3 alpha (Homo sapiens, UniProt P49840); test: Inhibition of human recombinant GSK3alpha by FRET assay
Danio rerio = species: Danio rerio; test: Toxicity in wild type zebra fish embryo up to 30 uM; type: organism-based; details: zebrafish, in vivo

Sequence of Glycogen synthase kinase-3 alpha (P49840 whole entry): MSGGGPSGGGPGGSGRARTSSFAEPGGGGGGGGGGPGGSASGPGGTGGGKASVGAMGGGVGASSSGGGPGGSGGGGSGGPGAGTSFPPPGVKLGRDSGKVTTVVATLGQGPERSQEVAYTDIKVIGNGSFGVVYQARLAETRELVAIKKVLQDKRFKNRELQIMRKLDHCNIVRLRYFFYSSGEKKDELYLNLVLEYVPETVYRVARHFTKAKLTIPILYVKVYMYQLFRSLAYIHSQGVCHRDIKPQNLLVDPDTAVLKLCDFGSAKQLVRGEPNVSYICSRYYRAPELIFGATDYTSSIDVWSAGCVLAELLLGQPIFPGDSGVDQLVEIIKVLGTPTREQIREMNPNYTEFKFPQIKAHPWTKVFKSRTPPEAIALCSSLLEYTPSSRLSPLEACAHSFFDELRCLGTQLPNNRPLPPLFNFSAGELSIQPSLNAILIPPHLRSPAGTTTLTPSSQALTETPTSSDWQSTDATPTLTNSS
Sequence of Glycogen synthase kinase-3 beta (P49841 whole entry): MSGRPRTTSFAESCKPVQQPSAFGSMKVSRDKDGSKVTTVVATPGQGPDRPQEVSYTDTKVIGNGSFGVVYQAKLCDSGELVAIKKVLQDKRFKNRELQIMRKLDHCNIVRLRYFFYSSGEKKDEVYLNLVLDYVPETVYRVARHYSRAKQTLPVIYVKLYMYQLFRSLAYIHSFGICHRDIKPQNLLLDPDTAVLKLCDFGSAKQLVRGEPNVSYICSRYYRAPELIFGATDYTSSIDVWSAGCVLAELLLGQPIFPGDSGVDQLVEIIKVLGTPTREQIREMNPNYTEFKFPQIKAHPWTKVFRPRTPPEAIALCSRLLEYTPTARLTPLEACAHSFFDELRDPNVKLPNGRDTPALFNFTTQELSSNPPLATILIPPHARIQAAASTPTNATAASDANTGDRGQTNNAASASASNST
Sequence of Cyclin-dependent kinase 5 (Q00535 whole entry): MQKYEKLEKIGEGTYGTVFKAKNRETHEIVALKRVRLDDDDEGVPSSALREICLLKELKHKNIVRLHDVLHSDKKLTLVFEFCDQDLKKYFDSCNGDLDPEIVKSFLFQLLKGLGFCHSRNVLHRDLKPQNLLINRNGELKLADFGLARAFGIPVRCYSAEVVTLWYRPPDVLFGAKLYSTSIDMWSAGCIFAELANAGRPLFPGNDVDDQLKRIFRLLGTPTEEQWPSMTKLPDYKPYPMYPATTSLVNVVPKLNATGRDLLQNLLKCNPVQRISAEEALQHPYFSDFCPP
Sequence of Casein kinase I isoform epsilon (P49674 whole entry, canonical isoform): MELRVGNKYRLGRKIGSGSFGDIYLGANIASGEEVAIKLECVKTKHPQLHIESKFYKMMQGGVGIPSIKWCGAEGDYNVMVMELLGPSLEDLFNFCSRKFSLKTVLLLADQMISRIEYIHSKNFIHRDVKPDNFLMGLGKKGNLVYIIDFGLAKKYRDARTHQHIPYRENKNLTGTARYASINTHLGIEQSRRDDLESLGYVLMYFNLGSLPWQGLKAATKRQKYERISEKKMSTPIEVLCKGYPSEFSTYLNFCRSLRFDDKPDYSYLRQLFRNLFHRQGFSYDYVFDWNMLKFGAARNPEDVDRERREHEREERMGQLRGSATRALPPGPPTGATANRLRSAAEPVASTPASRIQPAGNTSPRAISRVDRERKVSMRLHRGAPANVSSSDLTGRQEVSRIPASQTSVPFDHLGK

Compound	IC50 [1] [µM]	IC50 (Aurora kinase A) [µM]	IC50 [2] [µM]	IC50 [3] [µM]	IC50 [4] [µM]	IC50 [5] [µM]	Activity (Danio rerio)
CC(=O)Nc1cc(-c2nnc(SCc3ccccc3)o2)ccn1	> 100	60	> 100	> 100	0.035	0.02	
O=[N+]([O-])c1cccc(-c2ccc(CSc3nnc(-c4ccc5c(c4)OCCO5)o3)cc2)c1	> 100	> 100	> 100	> 100	0.164	0.015	
CC(=O)Nc1cc(-c2nnc(SCc3ccc(-c4ccccc4C#N)cc3)o2)ccn1	> 100	> 100	> 100	> 100	0.017	0.002	Non-toxic
O=[N+]([O-])c1cccc(-c2ccc(CSc3nnc(-c4ccc5c(c4)OCO5)o3)cc2)c1	> 100	> 100	> 100	> 100	0.086	0.015	
O=[N+]([O-])c1ccccc1-c1ccc(CSc2nnc(-c3ccc4c(c3)OCO4)o2)cc1	> 100	> 100	> 100	> 100	0.027	0.003	
N#Cc1cccc(-c2ccc(CSc3nnc(-c4ccc5c(c4)OCCO5)o3)cc2)c1	> 100	> 100	> 100	> 100	0.225	0.009	
O=[N+]([O-])c1ccccc1-c1ccc(CSc2nnc(-c3ccc4c(c3)OCCO4)o2)cc1	> 100	> 100	> 100	> 100	0.09	0.004	
CC(=O)Nc1cc(-c2nnc(SCc3cccc(C#N)c3)o2)ccn1	> 100	> 100	> 100	> 100	0.019	0.017	
COc1ccc(-c2ccc(CSc3nnc(-c4ccc5c(c4)OCCO5)o3)cc2)c(C#N)c1	> 100	> 100	> 100	> 100	0.032	0.005	
Fc1cc(F)cc(-c2ccc(CSc3nnc(-c4ccc5c(c4)OCCO5)o3)cc2)c1	> 100	> 100	> 100	> 100	0.966	0.035	
Fc1cc(F)cc(-c2ccc(CSc3nnc(-c4ccc5c(c4)OCO5)o3)cc2)c1	> 100	> 100	80	> 100	0.195	0.051	
N#Cc1cccc(-c2ccc(CSc3nnc(-c4ccc5c(c4)OCO5)o3)cc2)c1	> 100	> 100	> 100	> 100	0.029	0.004	

More lines, main results first:

IC50 [1] [µM]	IC50 (Aurora kinase A) [µM]	IC50 [2] [µM]	IC50 [3] [µM]	IC50 [4] [µM]	IC50 [5] [µM]	Compound	Activity (Danio rerio)
> 100	> 100	> 100	> 100	0.127	0.019	COc1ccc(-c2ccc(CSc3nnc(-c4ccc5c(c4)OCCO5)o3)cc2)cc1	
> 100	> 100	> 100	> 100	0.176	0.24	COc1ccc(-c2ccc(CSc3nnc(-c4ccncc4)o3)cc2)cc1	
> 100	> 100	> 100	> 100	0.153	0.077	N#Cc1ccc(-c2ccc(CSc3nnc(-c4ccncc4)o3)cc2)cc1	
> 100	> 100	> 100	> 100	0.234	0.051	c1ccc(-c2ccc(CSc3nnc(-c4ccc5c(c4)OCCO5)o3)cc2)cc1	
> 100	5	> 100	> 100	0.164	0.027	O=[N+]([O-])c1ccccc1-c1ccc(CSc2nnc(-c3ccncc3)o2)cc1	
> 100	50	> 100	> 100	2	0.195	N#Cc1ccc(-c2ccc(CSc3nnc(-c4ccc5c(c4)OCCO5)o3)cc2)cc1	
> 100	60	> 100	> 100	0.084	0.046	N#Cc1cccc(-c2ccc(CSc3nnc(-c4ccncc4)o3)cc2)c1	
> 100	> 100	> 100	> 100	0.083	0.052	c1ccc(-c2ccc(CSc3nnc(-c4ccncc4)o3)cc2)cc1	
> 100	40	20	> 100	0.075	0.007	COc1ccc(-c2ccc(CSc3nnc(-c4ccc5c(c4)OCO5)o3)cc2)cc1	
> 100	> 100	> 100	> 100	0.056	0.324	N#Cc1cc(F)ccc1-c1ccc(CSc2nnc(-c3ccncc3)o2)cc1	
> 100	45	50	> 100	0.014	0.005	COc1ccc(-c2ccc(CSc3nnc(-c4ccc5c(c4)OCO5)o3)cc2)c(C#N)c1	Non-toxic
